Read-outs that look alike come from different tables or passages of the source.
System: M. mycetomatis genome strain MM55
Assay: CLSI M38-A2 based in vitro susceptibility screening (XTT or resazurin), growth at fixed concentration
Type: cell-based, Madurella mycetomatis
Settings: Madurella mycetomatis
[1] = 25 uM, mean of three replicates, read-out: Percentage survival at 25um, 25 uM mean
[2] = 25 uM, replicate A, read-out: Percentage survival at 25um, 25 um A
[3] = 25 uM, replicate B, read-out: Percentage survival at 25um, 25 uM B
[4] = 25 uM, replicate C, read-out: Percentage survival at 25um, 25 uM C
[5] = mean of three replicates, read-out: Percentage survival at 100um, 100 uM mean
[6] = replicate 1, read-out: Percentage survival at 100um, 100 uM A (first replicate column)
[7] = replicate 2, read-out: Percentage survival at 100um, 100 uM A (second replicate column)
[8] = replicate 3, read-out: Percentage survival at 100um, 100 uM A (third replicate column)
[9] = 25 uM, mean of replicates, read-out: Percentage survival at 25um, 25 uM mean
[10] = mean of replicates, read-out: Percentage survival at 100um, 100 uM mean
[11] = replicate 1, read-out: Percentage survival at 100um, 100 uM A
[12] = replicate 2, read-out: Percentage survival at 100um, 100 uM A
[13] = replicate 3, read-out: Percentage survival at 100um, 100 uM A
[14] = 25 uM, mean of three, M. mycetomatis MM55, read-out: Percentage survival at 25um, 25 uM mean
[15] = 25 uM, replicate A, M. mycetomatis MM55, read-out: Percentage survival at 25um, 25 um A
[16] = 25 uM, replicate B, M. mycetomatis MM55, read-out: Percentage survival at 25um, 25 uM B
[17] = 25 uM, replicate C, M. mycetomatis MM55, read-out: Percentage survival at 25um, 25 uM C
[18] = mean of three, M. mycetomatis MM55, read-out: Percentage survival at 100um, 100 uM mean
[19] = replicate 1, M. mycetomatis MM55, read-out: Percentage survival at 100um, 100 uM A (first replicate column)
[20] = replicate 2, M. mycetomatis MM55, read-out: Percentage survival at 100um, 100 uM A (second replicate column)
[21] = replicate 3, M. mycetomatis MM55, read-out: Percentage survival at 100um, 100 uM A (third replicate column)

O=C(Cn1cnc2ccccc2c1=O)Nc1ccccc1 [MMV1578891]
activity at 25 µM [1]: 80.3%
activity at 25 µM [2]: 84%
activity at 25 µM [3]: 82.2%
activity at 25 µM [4]: 74.7%
activity at 100 µM [5]: 83.9%
activity at 100 µM [6]: 90.8%
Percent fungal survival at 100 µM [7]: 79.4%
activity at 100 µM [8]: 81.6%

CCOC(=O)N1CCN(c2ccc(Cl)cc2)CC1 [MMV1578898]
activity at 25 µM [9]: 83.5%
activity at 25 µM [2]: 91.8%
activity at 25 µM [3]: 91.8%
activity at 25 µM [4]: 66.9%
activity at 100 µM [10]: 47.7%
activity at 100 µM [11]: 38.1%
activity at 100 µM [12]: 63.1%
activity at 100 µM [13]: 42%

CCCC(=O)OCCc1ccccc1 [MMV1578899]
activity at 25 µM [14]: 85.3%
activity at 25 µM [15]: 87.9%
activity at 25 µM [16]: 88.2%
activity at 25 µM [17]: 79.8%
activity at 100 µM [18]: 87.4%
activity at 100 µM [19]: 89.3%
Percent fungal survival at 100 µM [20]: 88.3%
activity at 100 µM [21]: 84.5%

CC(Oc1ccc(Cl)cc1Cl)C(=O)NCc1ccc2c(c1)OCO2 (stereo not shown) [MMV1578925]
activity at 25 µM (25 uM, mean, read-out: Percentage survival at 25um, 25 uM mean): 48.3%
activity at 25 µM [2]: 53.9%
activity at 25 µM [3]: 36.1%
activity at 25 µM [4]: 54.9%
activity at 100 µM (mean, read-out: Percentage survival at 100um, 100 uM mean): 70.2%
activity at 100 µM (replicate (first column), read-out: Percentage survival at 100um, 100 uM A): 65.3%
activity at 100 µM (replicate (second column), read-out: Percentage survival at 100um, 100 uM A): 69%
activity at 100 µM (replicate (third column), read-out: Percentage survival at 100um, 100 uM A): 76.3%

C=C(C)n1c(=O)n(Cc2ccccc2C)c2ccccc21 [MMV1579354]
activity at 25 µM [14]: 79.6%
activity at 25 µM [15]: 93.1%
activity at 25 µM [16]: 79.3%
activity at 25 µM [17]: 66.5%
activity at 100 µM [18]: 9.54%
activity at 100 µM [19]: 2.4%
Percent fungal survival at 100 µM [20]: 21.4%
activity at 100 µM [21]: 4.84%

O=c1cc(OCc2ccccc2)ccn1Cc1ccccc1 [MMV1579775]
activity at 25 µM [14]: 71.3%
activity at 25 µM [15]: 65.3%
activity at 25 µM [16]: 61.6%
activity at 25 µM [17]: 87.1%
activity at 100 µM [18]: 63.4%
activity at 100 µM [19]: 61.9%
Percent fungal survival at 100 µM [20]: 72.8%
activity at 100 µM [21]: 55.4%

NS(=O)(=O)c1ccc(NC(=O)NC(c2ccccc2)c2ccccc2)cc1 [MMV1579776]
activity at 25 µM [15]: 95.1%
activity at 100 µM [18]: 97%
activity at 100 µM [19]: 103%
activity at 100 µM [20]: 98.7%
activity at 100 µM [21]: 89%
activity at 25 µM (read-out: Percentage survival at 25um, 25 uM B): 101%
activity at 25 µM (read-out: Percentage survival at 25um, 25 uM C): 86.7%
activity at 25 µM (read-out: Percentage survival at 25um, 25 uM mean): 94.2%

O=[N+]([O-])c1cn(Cc2nc(O)nc(O)c2Br)cn1 [MMV1579777]
activity at 25 µM [9]: 94.1%
activity at 25 µM [2]: 98.9%
activity at 25 µM [3]: 96.8%
activity at 25 µM [4]: 86.6%
activity at 100 µM [10]: 87.1%
activity at 100 µM [11]: 96.7%
activity at 100 µM [12]: 83.9%
activity at 100 µM [13]: 80.7%

C[C@H](NC(CC(=O)c1ccccc1C(F)(F)F)C(=O)O)c1ccccc1 (stereo partly shown) [MMV1579778]
activity at 25 µM [1]: 93.5%
activity at 25 µM [2]: 98.1%
activity at 25 µM [3]: 92%
activity at 25 µM [4]: 90.5%
activity at 100 µM [5]: 87.3%
activity at 100 µM [6]: 91.1%
Percent fungal survival at 100 µM [7]: 82.8%
activity at 100 µM [8]: 88.1%

CC(=O)Nc1cc(NS(=O)(=O)c2ccc(Cl)cc2)cc2c(Cl)n[nH]c12 [MMV1579779]
activity at 25 µM [9]: 83.8%
activity at 25 µM [2]: 80.2%
activity at 25 µM [3]: 89.2%
activity at 25 µM [4]: 82.1%
activity at 100 µM [10]: 82.2%
activity at 100 µM [11]: 78.5%
activity at 100 µM [12]: 74.6%
activity at 100 µM [13]: 93.4%

CC(C)n1cnc2c(NCc3ccccc3)nc(NCc3ccccc3)nc21 [MMV1579780]
activity at 25 µM [9]: 62.7%
activity at 25 µM [2]: 64.2%
activity at 25 µM [3]: 61.7%
activity at 25 µM [4]: 62%
activity at 100 µM [10]: 61%
activity at 100 µM [11]: 60.4%
activity at 100 µM [12]: 63.1%
activity at 100 µM [13]: 59.6%
